# Assay results taken from PubChem BioAssay AID330 (DTP/NCI, 2004).
# Several values for one entry are separate records, joined by “and”; a condition that tells them apart may be missing. Equal entries are not always repeated. Inconclusive results and toxic doses are left out.
# Tested on: P388 leukemia ip, CD2F1 mice, survival T/C
# Experiment: NCI In Vivo Anticancer Drug Screen. Data for tumor model P388 Leukemia (intraperitoneal) in CD2F1 (CDF1) mice
# Conditions: endpoint: median survival time, higher = longer survival
# Procedure, shortened: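 Mice carrying the transplanted tumor received test compound or vehicle. Survival was recorded in each group, and the value is the treated-group measurement divided by that of the vehicle-treated control group.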
# [1] = dose: 25.0 mg/kg/injection, schedule: Q01DX009 (ip), vehicle: saline with Tween-80
# [2] = dose: 100.0 mg/kg/injection, schedule: Q01DX009 (ip), vehicle: saline with Tween-80
# [3] = dose: 50.0 mg/kg/injection, schedule: Q01DX009 (ip), vehicle: saline with Tween-80
# [4] = dose: 200.0 mg/kg/injection, schedule: Q01DX009 (ip), vehicle: saline with Tween-80
# [5] = dose: 12.5 mg/kg/injection, schedule: Q01DX005 (ip), vehicle: saline with Tween-80
# [6] = dose: 25.0 mg/kg/injection, schedule: Q01DX005 (ip), vehicle: saline with Tween-80
# [7] = dose: 50.0 mg/kg/injection, schedule: Q01DX005 (ip), vehicle: saline with Tween-80
# [8] = dose: 100.0 mg/kg/injection, schedule: Q01DX005 (ip), vehicle: saline with Tween-80
# [9] = dose: 200.0 mg/kg/injection, schedule: Q01DX005 (ip), vehicle: saline with Tween-80
# [10] = dose: 60.0 mg/kg/injection, schedule: Q01DX005 (ip), vehicle: Klucel (hydroxypropylcellulose) (HPC)
# [11] = dose: 120.0 mg/kg/injection, schedule: Q01DX005 (ip), vehicle: Klucel (hydroxypropylcellulose) (HPC)
# [12] = dose: 240.0 mg/kg/injection, schedule: Q01DX005 (ip), vehicle: Klucel (hydroxypropylcellulose) (HPC)
# [13] = dose: 50.0 mg/kg/injection, schedule: Q01DX005 (ip), vehicle: Klucel (hydroxypropylcellulose) (HPC)
# [14] = dose: 100.0 mg/kg/injection, schedule: Q01DX005 (ip), vehicle: Klucel (hydroxypropylcellulose) (HPC)
# [15] = dose: 200.0 mg/kg/injection, schedule: Q01DX005 (ip), vehicle: Klucel (hydroxypropylcellulose) (HPC)
# [16] = dose: 25.0 mg/kg/injection, schedule: Q01DX005 (ip), vehicle: Klucel (hydroxypropylcellulose) (HPC)
# [17] = dose: 12.5 mg/kg/injection, schedule: Q01DX009 (ip), vehicle: water
# [18] = dose: 25.0 mg/kg/injection, schedule: Q01DX009 (ip), vehicle: water
# [19] = dose: 50.0 mg/kg/injection, schedule: Q01DX009 (ip), vehicle: water
# [20] = dose: 60.0 mg/kg/injection, schedule: Q01DX005 (ip), vehicle: saline with Tween-80
# [21] = dose: 120.0 mg/kg/injection, schedule: Q01DX005 (ip), vehicle: saline with Tween-80
# [22] = dose: 240.0 mg/kg/injection, schedule: Q01DX005 (ip), vehicle: saline with Tween-80
# [23] = dose: 22.0 mg/kg/injection, schedule: Q01DX009 (ip), vehicle: saline with Tween-80
# [24] = dose: 33.0 mg/kg/injection, schedule: Q01DX009 (ip), vehicle: saline with Tween-80
# [25] = dose: 75.0 mg/kg/injection, schedule: Q01DX009 (ip), vehicle: saline with Tween-80
# [26] = dose: 50.0 mg/kg/injection, schedule: Q01DX009 (ip), vehicle: Klucel (hydroxypropylcellulose) (HPC)
# [27] = dose: 100.0 mg/kg/injection, schedule: Q01DX009 (ip), vehicle: Klucel (hydroxypropylcellulose) (HPC)
# [28] = dose: 200.0 mg/kg/injection, schedule: Q01DX009 (ip), vehicle: Klucel (hydroxypropylcellulose) (HPC)
smiles,measurement,setting,value
C=C1C(=O)CCC1C#N (configuration not stated),T/C,"dose: 50.0 mg/kg/injection, schedule: Q04DX002 (ip), vehicle: suspension in saline",100 % of control
same,T/C,"dose: 100.0 mg/kg/injection, schedule: Q04DX002 (ip), vehicle: suspension in saline",100 % of control
same,T/C,"dose: 200.0 mg/kg/injection, schedule: Q04DX002 (ip), vehicle: suspension in saline",93 % of control
O=C1c2ccccc2C(=O)c2sccc21,T/C,"dose: 1.56 mg/kg/injection, schedule: Q01DX009 (ip), vehicle: saline with Tween-80",98 % of control
same,T/C,"dose: 3.13 mg/kg/injection, schedule: Q01DX009 (ip), vehicle: saline with Tween-80",105 % of control
same,T/C,"dose: 6.25 mg/kg/injection, schedule: Q01DX009 (ip), vehicle: saline with Tween-80",103 % of control
same,T/C,"dose: 12.5 mg/kg/injection, schedule: Q01DX009 (ip), vehicle: saline with Tween-80",99 % of control
same,T/C,[1],97 % of control
same,T/C,[2],88 % of control
COC(=S)NC(=O)c1ccc(Cl)c(Cl)c1,T/C,[1],108 % of control
same,T/C,[3],107 % of control
same,T/C,[2],99 % of control
same,T/C,[4],110 % of control
CCCCN(CCCC)/N=N\N(CCCC)CCCC,T/C,[5],104 % of control and 93 % of control
same,T/C,[6],104 % of control and 90 % of control
same,T/C,[7],107 % of control and 93 % of control and 94 % of control
same,T/C,[8],98 % of control and 100 % of control and 97 % of control
same,T/C,[9],105 % of control
c1coc(-c2cc(-c3cc(-c4ccco4)on3)no2)c1,T/C,[10],105 % of control
same,T/C,[11],100 % of control
same,T/C,[12],107 % of control
NC(C(=O)O)C1C=CCC1 (configuration not stated),T/C,[13],106 % of control
same,T/C,[14],99 % of control
COc1cc2c(cc1C(C)c1cc(C(C)(C)C)c(O)c(C(C)(C)C)c1)OCO2 (configuration not stated),T/C,[7],104 % of control
same,T/C,[8],100 % of control
same,T/C,[9],94 % of control
COc1ccc2oc3cc4c(c(O)c3c(=O)c2c1CC=C(C)C)C=CC(C)(C)O4,T/C,[13],88 % of control
same,T/C,[14],86 % of control
same,T/C,[15],87 % of control
CC1=CC(C)(C)N=C2SC(COc3ccccc3)=NN12,T/C,[16],116 % of control
same,T/C,[13],109 % of control
same,T/C,[14],107 % of control
same,T/C,[15],104 % of control
CC(=O)CC(C)(C)C1CCCCC1,T/C,[17],116 % of control
same,T/C,[18],108 % of control
same,T/C,[19],103 % of control
same,T/C,"dose: 100.0 mg/kg/injection, schedule: Q01DX009 (ip), vehicle: water",107 % of control
same,T/C,"dose: 200.0 mg/kg/injection, schedule: Q01DX009 (ip), vehicle: water",104 % of control
N#Cc1ccc(OC(=O)Nc2cc(Cl)cc(Cl)c2)cc1,T/C,[20],89 % of control
same,T/C,[21],106 % of control
same,T/C,[22],101 % of control
O=C(CC1(O)C(=O)Nc2ccccc21)c1ccc([N+](=O)[O-])cc1 (configuration not stated),T/C,[20],102 % of control
same,T/C,[21],95 % of control
same,T/C,[22],100 % of control
COc1ccc(/C=C(/C)[N+](=O)[O-])cc1OC,T/C,[23],109 % of control
same,T/C,[24],109 % of control
same,T/C,[3],109 % of control
same,T/C,[25],118 % of control
same,T/C,"dose: 200.0 mg/kg/injection, schedule: Q01DX009 (ip), vehicle: saline",100 % of control
CN(C)c1ccc2c(SCC(=O)Nc3ccc(NS(C)(=O)=O)cc3)c3ccc(N(C)C)cc3nc2c1,T/C,[13],115 % of control
same,T/C,[14],117 % of control
same,T/C,[15],114 % of control
CCCCN1C=C(C)N(CCCC)CC1,T/C,[5],109 % of control
same,T/C,[6],114 % of control
same,T/C,[7],121 % of control and 123 % of control
same,T/C,[8],116 % of control
O=S(=O)(OI(O)c1ccccc1)c1ccccc1,T/C,[17],98 % of control
same,T/C,[18],116 % of control
same,T/C,[19],105 % of control and 113 % of control
COC1=CC(=O)C2CC=CC(CC(=O)O)C2(C)C1=O (configuration not stated),T/C,[13],108 % of control
same,T/C,[14],103 % of control
O=C(Nc1cccc2c1C(=O)c1cccc(NC(=O)c3ccc(C(=O)Nc4cccc5c4C(=O)c4cccc(NC(=O)c6ccccc6)c4C5=O)cc3)c1C2=O)c1ccccc1,T/C,[3],100 % of control
same,T/C,[2],94 % of control
same,T/C,[4],93 % of control
CN(C)NC(=O)c1ccc(C(=O)NN(C)C)cc1,T/C,[26],108 % of control
same,T/C,[27],108 % of control
same,T/C,[28],113 % of control
Cc1ncc([N+](=O)[O-])n1CCSC#N,T/C,"dose: 6.25 mg/kg/injection, schedule: Q04DX003 (ip), vehicle: saline with Tween-80",105 % of control
same,T/C,"dose: 12.5 mg/kg/injection, schedule: Q04DX003 (ip), vehicle: saline with Tween-80",96 % of control
C1CN2CCO[Si](CC[Si]34OCCN(CCO3)CCO4)(O1)OCC2,T/C,[13],106 % of control
same,T/C,[14],113 % of control
same,T/C,[15],94 % of control
[Br][Ga]([Br])[Br],T/C,"dose: 25.0 mg/kg/injection, schedule: Q01DX009 (ip), vehicle: saline",115 % of control
same,T/C,"dose: 50.0 mg/kg/injection, schedule: Q01DX009 (ip), vehicle: saline",100 % of control
same,T/C,"dose: 100.0 mg/kg/injection, schedule: Q04DX003 (ip), vehicle: saline sonified",100 % of control
CCOC(=O)C(SC(S(=O)(=O)c1ccccc1)S(=O)(=O)c1ccccc1)C(=O)OCC,T/C,[26],98 % of control
same,T/C,[27],90 % of control
same,T/C,[28],90 % of control
O=C(NN1C(=O)CS(=O)(=O)C1c1ccc(F)cc1)c1ccncc1 (configuration not stated),T/C,[7],98 % of control
same,T/C,[8],97 % of control
same,T/C,[9],88 % of control
OCC1OC(n2cnc3c(NO)nc(NO)nc32)C(O)C1O (configuration not stated),T/C,"dose: 2.25 mg/kg/injection, schedule: Q01DX009 (ip), vehicle: saline",100 % of control
same,T/C,"dose: 4.5 mg/kg/injection, schedule: Q01DX009 (ip), vehicle: saline",114 % of control
same,T/C,"dose: 14.3 mg/kg/injection, schedule: Q01DX009 (ip), vehicle: saline",107 % of control
same,T/C,"dose: 18.0 mg/kg/injection, schedule: Q01DX009 (ip), vehicle: saline",114 % of control
same,T/C,"dose: 54.0 mg/kg/injection, schedule: Q01DX009 (ip), vehicle: saline",184 % of control
CCOC(=O)c1ccccc1N1C(=O)c2ccccc2NP1(=O)Oc1ccccc1 (configuration not stated),T/C,[16],106 % of control
same,T/C,[13],103 % of control
same,T/C,[14],106 % of control
same,T/C,[15],98 % of control
O=C(CNC(=O)Nc1ccc(C2=NCCN2)cc1)Nc1ccc(C2=NCCN2)cc1,T/C,[23],95 % of control
same,T/C,[24],113 % of control
same,T/C,[25],154 % of control
CCCCCCCCCCCCCCCCCCCCCCCCC(O)C(=O)O (configuration not stated) (tested in a mixture with another compound),T/C,[5],106 % of control
same,T/C,[6],93 % of control
same,T/C,[7],87 % of control and 89 % of control
same,T/C,[9],87 % of control
Cc1ncc(CN2CSC(CCO)C2C)c(N)n1 (configuration not stated),T/C,[10],100 % of control
same,T/C,[11],106 % of control
same,T/C,[12],105 % of control
Cn1c2c(c3nc(N)nc(N)c3c1=O)CCc1ccccc1-2,T/C,"dose: 25.0 mg/kg/injection, schedule: Q01DX005 (ip), vehicle: distilled water + alcohol",102 % of control
same,T/C,"dose: 50.0 mg/kg/injection, schedule: Q01DX005 (ip), vehicle: distilled water + alcohol",96 % of control
same,T/C,"dose: 100.0 mg/kg/injection, schedule: Q01DX005 (ip), vehicle: distilled water + alcohol",94 % of control
same,T/C,"dose: 200.0 mg/kg/injection, schedule: Q01DX005 (ip), vehicle: distilled water + alcohol",103 % of control
CCCCCCCCCCCCOC(=O)OCCCCCCCCCCCC,T/C,"dose: 100.0 mg/kg/injection, schedule: Q04DX003 (ip), vehicle: saline with Tween-80",100 % of control
same,T/C,"dose: 200.0 mg/kg/injection, schedule: Q04DX003 (ip), vehicle: saline with Tween-80",100 % of control
same,T/C,"dose: 400.0 mg/kg/injection, schedule: Q04DX003 (ip), vehicle: saline with Tween-80",100 % of control
